For orientation: melting point means the temperature of the solid-liquid transition. For the compound `COc1ccc(-c2cc(C)c(C(=O)O)c(C)c2)cc1OC`, the melting point lay in the range of 175 to 176 °C.
In the case of `COc1ccc(CCc2oc3ccc(Br)cc3c2C(C)=O)cc1` it was 100 to 101 °C.
In the case of `CCOC(=O)c1cn(-c2nc(NC(C)(C)CC(C)(C)C)ccc2F)c2c(Cl)c(F)c(F)cc2c1=O` it was 178 to 180 °C.
The same measure for `O=C(O)c1ccc(OC(F)F)c2oc3ccncc3c12`: above 250 °C.
The compound `OCCN1CC[C@@H]2[C@H]1CCC[C@@]2(O)c1ccc(Cl)c(Cl)c1` (racemic) gave a melting point of 161 °C.
The same measure for `O=C(Cc1ccc(Cl)cc1)N1CCC2(CC1)Cc1ccccc1O2`: 108 to 110 °C; for `CC(C)NC(=NC(=O)OC(C)(C)C)N=C1NC(=O)C(=O)N1c1ccc(Cl)c(Cl)c1`: 227 °C; for `CN(C)C(=O)Cc1ccc(CC(=O)O)cc1`: 163 to 165 °C.
The compound `CN(C)CCNC(=O)c1ccc(C(Cc2ccc(F)cc2)C(=O)Nc2nc3ccccc3o2)cc1` (stereo not drawn) gave a melting point of 149 to 151 °C.
The same measure for `CC(C)(C)OC(=O)N1CC=C(c2ccc3oc(-c4ccc(S(C)(=O)=O)cc4F)nc3c2)CC1`: 149 to 151 °C; for `CC(C)(C)c1cc(Cn2nc(CCCCCCCCc3nn(Cc4cc(C(C)(C)C)c(O)c(C(C)(C)C)c4)c(=O)o3)oc2=O)cc(C(C)(C)C)c1O`: 142 °C; for `O=C(O)CCCC/C=C(\c1ccc(C2=N[C@H](C(=O)NCCCCC3CCCCC3)CO2)cc1)c1cccnc1`: 61 °C.
In the case of `Cc1ccc(Cn2[nH]c(N)cc2=O)cc1` it was 149 °C.
The same measure for `ON=C(c1ccc(Cl)cc1)c1ccc(Cl)cc1Cl`: 98 to 100 °C; for `CC1(CN)CN(c2cc3c(cc2F)c(=O)c(C(=O)O)cn3C2CC2)C1`: 274 to 279 °C.
Compound `Nc1ccc2c(c1)ncn2-c1ccccc1O` showed a melting point of 202 to 203 °C.
The same measure for `OCCNc1nc(NCc2ccccc2)c2ncc(Nc3ncncn3)cc2n1`: 202 to 203 °C.
The same measure for `CCC1CC(=O)N(Cc2ccc(NC(=O)C(C)(C)C)cc2)N=C1c1ccc(OC)c(OC)c1` (stereo not drawn): 117 °C; for `CC1(C)Cc2c(Cl)cccc2C=[N+]1[O-]`: 104 to 106 °C; for `CC(C)(C)CC(=O)Oc1ccc(-c2nn(C3CCCC3)c3c(F)cccc23)cc1`: 74 to 75 °C.
In the case of `Cc1oc(-c2ccccc2)nc1COc1ccc(Cn2cc(CCC(=O)O)cn2)cc1` it was 124 to 125 °C; in that of `COc1ccc(C=O)c(Oc2ccc(Cl)cc2[N+](=O)[O-])c1`, 130 to 131 °C.
As to `O=C(c1ccccc1)c1cc(Cl)ccc1-n1cnnc1`, the melting point was 182 to 184 °C.
The same measure for `O=c1ccc(C(F)(F)F)cn1Cc1ccc(F)cc1`: 70.1 to 72 °C; for `N#CCOc1ccc(C(=O)c2ccccc2)c(Cl)c1Cl`: 110 to 112 °C.
The same measure for `C#Cc1cnc(C2=NC(C)(C(C)C)C(=O)N2)c(C(=O)O)c1` (stereo not drawn): 190 to 195 °C.
In the case of `CC(C)S(=O)(=O)c1ccc2c(c1)nc(CC1CCCC1)n2CC1CC1` it was 137 °C; in that of `CCCCn1c(=O)c2c(NC)n[nH]c2n(CCO)c1=O`, 248 to 253 °C; in that of `COc1ccc(-c2c[nH]c(=S)n2O)cc1`, 150 °C.
As for `CCOC(=O)c1sc(NC(C)=O)c(C(=O)OCC)c1C`, the melting point lay in the range of 130 to 131 °C.
In the case of `COc1ccc(C2(C=O)C=CC=CC2)cc1OCCCC1(c2noc3cc(F)ccc23)CCNCC1` (stereo not drawn) it was 140 to 141 °C.
`CC1(C)CCC(C)(C)c2cc(C(=O)C=Cc3ccc(C(=O)O)c(O)c3)ccc21` yielded a melting point of 260 to 261 °C.
`CCOc1cc2c3ccccc3c(C=O)cc2c2ccccc12` displayed a melting point of 174 to 176 °C.
`O=[N+]([O-])c1cc(Cl)cc(Cc2cc(Cl)cc([N+](=O)[O-])c2O)c1O` showed a melting point of 163 to 170 °C.
`CC(C)(C)OC(=O)[C@@H]1CCC(=O)N1C(=O)OC(C)(C)C` gave a melting point of 53 to 55 °C.
The same measure for `CCN(C(=O)n1nc2c(Cl)c(Cl)c(Cl)c(Cl)c2n1)c1ccccc1`: 157 °C.
In the case of `CC(C)(O)c1ccc(Cl)c2nc3n(c12)CCCN3c1ccc(Cl)cc1Cl` it was 216 to 218 °C.
In the case of `COc1ccc(CNS(=O)(=O)CCCCl)cc1` it was 78 to 80 °C; in that of `CC1CN(C(=O)NC(CS)Cc2ccccc2)CC(C)O1` (single isomer, unassigned; (+)), 120 to 122 °C.
The compound `COc1ccc2nc(C)cc(NNC(=O)Nc3ccc(N(CCCl)CCCl)cc3)c2c1` gave a melting point of 184 to 186 °C.
In the case of `CCOC(=O)N1CCc2nc(-c3ccncn3)cc(=O)n2CC1` it was 144 to 146 °C; in that of `CCCc1nc2c(N)nc(C)c(C)c2n1CCCCCS(=O)(=O)c1ccc(F)cc1`, 130 to 132 °C.
In the case of `COc1ccc(OC)c2c(=O)c3c(Cl)ccc([N+](=O)[O-])c3sc12` it was 222 to 228 °C; in that of `COc1nc2c(C)cccc2c2c1CCN2c1ccccc1C`, 107 to 108 °C; in that of `O=C(O)Cc1ccc2c(c1)C(=O)c1ccc(Cl)cc1CO2`, 188 to 190 °C.
The same measure for `Cc1cc(Cn2c(-c3ccccc3)nc(Cl)c2CC#N)ccc1O`: 194 to 196 °C; for `Nc1ncc(-c2ccc(=O)[nH]n2)c(-c2ccc(Cl)c(Cl)c2)n1`: 300 °C.
With `CC(C)(C)NC(=O)[C@@H]1CN(NC(=O)OC(C)(C)C)CCN1NC(=O)Cc1ccccc1`, the melting point was in the range of 134 to 135 °C.
The same measure for `O=C(O)c1ccc(Cc2n[nH]c3c2c(=O)n(-c2ccccc2)c2ncccc32)cc1`: above 320 °C.
In the case of `N#Cc1ccc2oc3cc(O)ccc3c2c1` it was 270 to 271 °C; in that of `CCOC(=O)c1nocc1O`, 59 to 60 °C.
The same measure for `CNc1ccc(-c2nc(C)c(-c3cccnc3)[nH]2)c(OC)c1`: 54 to 56 °C.
`Cc1cccc(-c2nc3cccnn3c2-c2ccnc(NCCN3CCCCC3)c2)c1`: the melting point fell in the range of 143 to 144 °C.
Compound `NNC(=O)c1cnc2c(=O)[nH]c3ccccc3n2c1=O` gave a melting point above 300 °C.
The same measure for `CC(C)(C)OC(=O)N[C@@H]1C(=O)N(CCOCc2ccccc2)c2ccccc2-c2ccccc21`: 132 to 134 °C.
The same measure for `CN1CC(=O)Nc2cccnc2C1=O`: 272 to 274 °C; for `ClCc1ccc(Cl)nc1Cl`: 115 to 130 °C; for `Cc1cc(Oc2ccc(N)cc2)ccc1-c1ccc(Oc2ccc(N)cc2)cc1C`: 140 °C.
For `CCC(Oc1ccc2ncccc2c1)C(=O)O` (stereo not drawn), the melting point lay within 78 to 80 °C.
In the case of `CCN(CC)C(=O)N1CCc2ccc(S(=O)(=O)NC(=O)NC3CCCCC3)cc2CC1` it was 168 to 169 °C; in that of `CC/C(=N\OC(F)F)c1ccc(Cl)c2nc3n(c12)CCCN3c1c(C)nc(OC)nc1C`, 199 to 200 °C.
In the case of `COc1cccc(CC(=O)O)c1OCc1cc(OCc2ccc3ccccc3n2)nn1C(C)C` it was 163 to 164 °C.
In the case of `Nn1c(C(F)(F)F)cc(=O)n(-c2ccc(O)cc2)c1=O` it was 150 to 155 °C; in that of `O=C(O)COc1ccc(OCC2CCN(c3ccncc3)CC2)cc1`, 278 to 281 °C; in that of `COc1ccc2c(c1)c(C=C1SC(=S)N(CC(=O)O)C1=O)c(C)n2C(=O)c1ccc(Cl)cc1`, 204 to 208 °C.
As for `COCCC(=O)Nc1ccc(CCCc2ccccc2OCc2ccccc2)cc1`, the melting point fell in the range of 65 to 66 °C.
The same measure for `Cn1cc(C(=O)Nc2ccccc2OC(F)(F)C(F)Cl)c(C(F)(F)F)n1` (stereo not drawn): 94 to 95 °C; for `CCOC(=O)C1=C(C)NC(C=O)=C(C(=O)OCC)C1c1ccco1` (stereo not drawn): 78 to 79.5 °C; for `CC1(C)Oc2ccc(C#N)cc2[C@@H](N2CCCNC2=NC#N)[C@@H]1O` (relative stereo): 152 to 153 °C.
In turn, `CCN1CCCC1CNC(=O)c1cc(S(N)(=O)=O)c(OC)c2c1OCCO2` (stereo not drawn) had a melting point of 110 to 115 °C.
As for `NC(=O)CCCCCCCCCCn1nnnc1S`, the melting point was 112 to 114 °C.
For `CCN1C(=O)CCC2(CCC(=O)c3ccccc32)C1=O` (stereo not drawn), the melting point lay within 85.5 to 89 °C.
In the case of `CCCCCc1c(C(C)C)nc(C(C)C)c(CO)c1-c1ccc(F)c(F)c1` it was 106 to 107 °C; in that of `Cn1nc(-c2cc3nccnc3[nH]2)cc1-c1ccccc1`, 222 to 223 °C.
The same measure for `CCCCOc1ccc(S(C)(=O)=O)cc1C(=O)Nc1c(C(N)=O)nn(C2CN(C(C)C)C2)c1CC`: 198 to 201 °C; for `CCCCC(Cn1cncn1)(C(N)=O)c1ccc(Cl)cc1` (stereo not drawn): 197 to 199 °C.
The same measure for `O=C1C=C(c2cc(F)c(Br)cc2F)CC1`: 129 to 131 °C; for `COc1c(C)cc(-c2[nH]c3ccccc3c2C)cc1C`: 108 to 110 °C.
Consider `CNc1cc(-n2ccc3ccccc32)cc(C)n1`, for which the melting point was in the range of 156 to 158 °C.
In the case of `CCCNC(=O)c1ccc(F)c2c1CC(N(CCCc1c[nH]c3ccc(F)cc13)C1CCC1)CO2` (stereo not drawn) it was 67 °C; in that of `O=C1C=C(O[C@@H]2c3cc(C(F)(F)C(F)(F)F)ccc3OC(CF)(CF)[C@H]2O)CC1` (relative stereo), 165 to 167 °C; in that of `COc1cc(OC)c2c(c1)N(C)C(c1cc(C)c(O)c(C)c1)N=C2` (stereo not drawn), 188 to 189 °C.
In the case of `CCC(=O)Oc1ccc(-c2nn(C3CCCC3)c3c(F)cccc23)cc1` it was 60 to 61 °C.
`O=[N+]([O-])c1c(Br)nn(Cc2ccccc2)c1NCc1ccccc1` had a melting point of 103 °C.
The compound `CCN(CC)S(=O)(=O)c1cc(Cl)c(Cl)c(Cl)c1S` had a melting point of 96 to 99 °C.
As to `C=CCCCCCCCCC(=O)OC1CCC2C3CCC4=CC(=O)CCC4C3CCC12CC` (stereo not drawn), the melting point lay within 87 to 88 °C.
Compound `CNC(=S)NS(=O)(=O)c1cc(CCNC(=O)c2cc(Cl)ccc2OC)ccc1-c1ccccc1` showed a melting point of 192 to 196 °C.
`O=c1n(CCCCN2CCC(n3c(=O)[nH]c4ccccc43)CC2)nc2n1-c1ccccc1OC2`: the melting point was in the range of 173 to 176 °C.
